The values below come from paper PMC6851853, “Characterization of P. falciparum dipeptidyl aminopeptidase 3 specificity identifies differences in amino acid preferences between peptide‐based substrates and covalent inhibitors” (The Febs Journal, 2019).

The target in test [1] is T1, DPAP1 (Plasmodium falciparum, UniProt Q8IIJ9).
T1 sequence (Q8IIJ9 28-209): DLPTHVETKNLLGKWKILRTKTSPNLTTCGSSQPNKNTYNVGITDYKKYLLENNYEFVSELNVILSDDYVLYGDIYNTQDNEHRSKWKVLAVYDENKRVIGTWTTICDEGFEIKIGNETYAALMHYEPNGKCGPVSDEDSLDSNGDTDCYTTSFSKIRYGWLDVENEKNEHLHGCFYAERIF
T1 sequence (Q8IIJ9 370-599): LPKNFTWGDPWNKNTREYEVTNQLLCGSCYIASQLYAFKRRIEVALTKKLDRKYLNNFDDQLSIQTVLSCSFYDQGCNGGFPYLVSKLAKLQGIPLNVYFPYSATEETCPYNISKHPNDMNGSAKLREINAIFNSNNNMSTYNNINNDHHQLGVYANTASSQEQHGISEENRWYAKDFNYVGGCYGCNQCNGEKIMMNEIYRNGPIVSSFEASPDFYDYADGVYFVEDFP
T1 sequence (Q8IIJ9 600-700): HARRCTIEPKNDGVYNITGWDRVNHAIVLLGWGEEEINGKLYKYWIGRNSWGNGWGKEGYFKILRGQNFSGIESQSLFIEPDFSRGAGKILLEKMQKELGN
Nature of the test: biochemical. Details: species or system P. falciparum parasite lysate; continuous fluorogenic assay, time-dependent inactivation of DPAP1 in diluted parasite lysate, Pro-Arg-AMC 20 uM. The procedure:
(§1) Inhibition of DPAP1 was directly measured in parasite lysates diluted 100‐fold in assay buffer using the DPAP1‐selective substrate Pro‐Arg‐AMC 42; 0.2 nM of […] was used for these inhibition studies. Note that because DPAP1 inhibition was directly measured in parasite lysates, inhibitors might have been partially inactivated through the action of aminopeptidases present in the lysates during the course of the assay. Therefore, the potency of the inhibitors might have been underestimated. […] The data were analysed according to the irreversible inhibition model shown in Eqn. 1. First, the progress curves (fluorescent units vs. time) were fitted to Eqn. 5, where F is the measured fluorescence at time t, F 0 the initial fluorescence, V 0 the initial turnover rate, and k obs the observed […] rate constant of inhibition measured at each inhibitor concentration 64.

A further test addresses T2, CatC (bovine) (Bos taurus, UniProt Q3ZCJ8).
T2 construct: gene CTSC; native, purified to homogeneity from bovine spleen
Nature of the test: biochemical. Details: continuous fluorogenic assay, time-dependent inactivation of 0.2 nM CatC, Gly-Arg-AMC 15 uM. The procedure: as §1

In test [2] the target is T3, DPAP1 (Plasmodium falciparum, UniProt Q8IIJ9).
T3 construct: native enzyme in live parasites (mature schizonts)
T3 sequence (Q8IIJ9 1-700): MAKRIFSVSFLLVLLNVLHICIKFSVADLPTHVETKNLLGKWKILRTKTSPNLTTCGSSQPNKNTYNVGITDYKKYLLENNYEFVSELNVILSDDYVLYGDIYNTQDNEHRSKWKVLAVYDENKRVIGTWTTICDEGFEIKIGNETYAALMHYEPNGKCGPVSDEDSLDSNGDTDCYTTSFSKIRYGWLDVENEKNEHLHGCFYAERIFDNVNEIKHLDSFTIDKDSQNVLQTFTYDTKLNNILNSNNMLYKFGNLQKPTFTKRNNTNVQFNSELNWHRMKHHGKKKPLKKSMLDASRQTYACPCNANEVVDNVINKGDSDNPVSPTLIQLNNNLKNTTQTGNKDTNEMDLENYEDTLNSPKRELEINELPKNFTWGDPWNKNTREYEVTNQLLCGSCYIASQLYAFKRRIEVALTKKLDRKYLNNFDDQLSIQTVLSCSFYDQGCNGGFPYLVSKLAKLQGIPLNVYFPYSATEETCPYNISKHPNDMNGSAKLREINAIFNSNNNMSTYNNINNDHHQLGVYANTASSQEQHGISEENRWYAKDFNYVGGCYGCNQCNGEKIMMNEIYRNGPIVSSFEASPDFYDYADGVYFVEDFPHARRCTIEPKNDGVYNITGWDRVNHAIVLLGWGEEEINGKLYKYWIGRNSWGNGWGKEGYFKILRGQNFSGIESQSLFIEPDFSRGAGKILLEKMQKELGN
Nature of the test: cell-based. Details: species or system P. falciparum mature schizonts in red blood cells; competitive activity-based probe FY01 labelling in intact parasites, in-gel fluorescence densitometry. The settings on record: live parasites, 30 min pretreatment. The protocol:
(§2) Live parasites were treated with different concentrations of inhibitor for 30 min, and the residual level of DPAPs and FPs activities were labelled with FY01 and quantified by densitometry (Fig. 6A). […] Compounds with a P2 Trp or Tyr(NO2) are highly specific for DPAP3 in intact parasites. […] Inhibitors need to cross four membranes to reach DPAP3: the RBC, parasitophorous vacuole and parasite plasma membranes, plus the membrane of the apical organelle where DPAP3 resides 21. (The parasitophorous vacuole is a membrane‐bound structure within which the parasite grows and multiplies isolated from the RBC cytosol.) However, crossing of the parasitophorous vacuole membrane is not likely to be a limiting factor to reach DPAP3 since this membrane is generally permeable to small molecules. It is also likely that the apparent increased potency of Trp‐hPG‐VS in live parasites might be due to its accumulation into the DPAP3 acidic organelle via protonation of its free amine. However, we predict that this lysosomotropic effect likely occurs for all DPAP inhibitors presented here. […] Samples were then run in an SDS/PAGE gel and the in‐gel fluorescence measured using a fluorescence scanner. […] (B) The fluorescence intensity of each of the indicated bands was quantified by densitometry using ImageJ, and the fluorescence values normalized to the DMSO control. […]

In the next test the target is T4, FP1 (Plasmodium falciparum, UniProt P25805).
T4 construct: native falcipain 1 in live parasites (mature schizonts)
In words: cell-based. The arrangement: species or system P. falciparum mature schizonts in red blood cells; competitive activity-based probe FY01 labelling in intact parasites, in-gel fluorescence densitometry. The settings on record: live parasites, 30 min pretreatment. The protocol: as §2

The target of test [3] is T5, DPAP3 (Plasmodium falciparum, UniProt Q8I1Y2). Nature of the test: cell-based. Details: native enzyme in live parasites (mature schizonts); species or system P. falciparum mature schizonts in red blood cells; competitive activity-based probe FY01 labelling in intact parasites, in-gel fluorescence densitometry. As to conditions: live parasites, 30 min pretreatment. The procedure: Live parasites were treated with different concentrations of inhibitor for 30 min, and the residual level of DPAPs and FPs activities were labelled with FY01 and quantified by densitometry (Fig. 6A). […] Compounds with a P2 Trp or Tyr(NO2) are highly specific for DPAP3 in intact parasites. […] Inhibitors need to cross four membranes to reach DPAP3: the RBC, parasitophorous vacuole and parasite plasma membranes, plus the membrane of the apical organelle where DPAP3 resides 21. (The parasitophorous vacuole is a membrane‐bound structure within which the parasite grows and multiplies isolated from the RBC cytosol.) However, crossing of the parasitophorous vacuole membrane is not likely to be a limiting factor to reach DPAP3 since this membrane is generally permeable to small molecules. It is also likely that the apparent increased potency of Trp‐hPG‐VS in live parasites might be due to its accumulation into the DPAP3 acidic organelle via protonation of its free amine. However, we predict that this lysosomotropic effect likely occurs for all DPAP inhibitors presented here.  Figure 6 Selective inhibition of DPAP1 or DPAP3 in live parasites. Intact mature schizonts were pretreated for 30 min with increasing concentrations of inhibitor followed by 1 h treatment with FY01. Samples were then run in an SDS/PAGE gel and the in‐gel fluorescence measured using a fluorescence scanner. (A) Representative gel images obtained for each of the inhibitors. Fluorescent bands corresponding to the different cysteine proteases labelled by the probe are indicated with arrowheads (DPAP3, red; FPs, green; DPAP1, blue). (B) The fluorescence intensity of each of the indicated bands was quantified by densitometry using ImageJ, and the fluorescence values normalized to the DMSO control. […] Three technical replicates were performed; dose responses for a representative replicate are shown.
Target sequence in this assay (Q8I1Y2 entry or part of it): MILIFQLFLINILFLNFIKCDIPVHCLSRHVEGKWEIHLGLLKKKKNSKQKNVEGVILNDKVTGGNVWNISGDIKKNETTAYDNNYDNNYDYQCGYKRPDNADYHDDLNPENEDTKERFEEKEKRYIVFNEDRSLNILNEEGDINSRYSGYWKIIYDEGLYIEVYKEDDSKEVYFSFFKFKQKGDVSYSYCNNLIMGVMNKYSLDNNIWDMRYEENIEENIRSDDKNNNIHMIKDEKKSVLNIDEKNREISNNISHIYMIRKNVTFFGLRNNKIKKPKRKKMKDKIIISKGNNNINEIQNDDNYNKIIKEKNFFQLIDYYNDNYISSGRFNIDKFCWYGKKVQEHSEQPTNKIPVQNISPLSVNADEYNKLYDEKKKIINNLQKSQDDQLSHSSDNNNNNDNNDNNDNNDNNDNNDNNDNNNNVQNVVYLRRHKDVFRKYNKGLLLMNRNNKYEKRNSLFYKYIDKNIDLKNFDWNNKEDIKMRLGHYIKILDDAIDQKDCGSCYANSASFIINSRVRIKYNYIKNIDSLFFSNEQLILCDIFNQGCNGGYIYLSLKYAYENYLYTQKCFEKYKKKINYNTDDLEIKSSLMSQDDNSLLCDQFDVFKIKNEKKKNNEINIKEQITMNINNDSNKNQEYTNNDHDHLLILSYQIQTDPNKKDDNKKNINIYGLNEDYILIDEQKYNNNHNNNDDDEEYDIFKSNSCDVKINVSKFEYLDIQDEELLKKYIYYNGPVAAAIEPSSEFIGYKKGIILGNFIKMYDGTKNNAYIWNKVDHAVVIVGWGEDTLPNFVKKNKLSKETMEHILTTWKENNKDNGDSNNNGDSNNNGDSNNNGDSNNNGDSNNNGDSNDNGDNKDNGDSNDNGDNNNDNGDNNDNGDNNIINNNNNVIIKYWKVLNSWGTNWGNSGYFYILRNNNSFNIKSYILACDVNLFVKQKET

Test [4] concerns the target T5, DPAP3. In words: biochemical. Details: gene PF3D7_0404700; recombinant, baculovirus/SF9 insect cells, purified from culture supernatant by ion exchange, Ni-NTA and size exclusion; active-site titrated; continuous fluorogenic assay, time-dependent inactivation of 0.2 nM recombinant DPAP3, Met-nLeu(o-Bzl)-ACC 2.2 uM. The protocol: The data were analysed according to the irreversible inhibition model shown in Eqn. 1. First, the progress curves (fluorescent units vs. time) were fitted to Eqn. 5, where F is the measured fluorescence at time t, F 0 the initial fluorescence, V 0 the initial turnover rate, and k obs the observed […] rate constant of inhibition measured at each inhibitor concentration 64. […] The inhibition constants are reported in Fig. 3C and Table 2 (See also Fig. S2 for representative fits). Only one inhibitor, containing an amino‐1‐methyl‐benzyl (Amb) group in P2, was not able to inhibit DPAP3 in a time‐dependent manner under our assay conditions (Fig. 3D). This is probably due to the fact that this extended and rigid P2 AA (Fig. 3E) might prevent proper positioning of the [compound left out] group into the active site of DPAP3 to allow covalent modification of the catalytic cysteine. For this compound, a K i value for reversible inhibition was measured.
Target sequence in this assay (Q8I1Y2 entry or part of it): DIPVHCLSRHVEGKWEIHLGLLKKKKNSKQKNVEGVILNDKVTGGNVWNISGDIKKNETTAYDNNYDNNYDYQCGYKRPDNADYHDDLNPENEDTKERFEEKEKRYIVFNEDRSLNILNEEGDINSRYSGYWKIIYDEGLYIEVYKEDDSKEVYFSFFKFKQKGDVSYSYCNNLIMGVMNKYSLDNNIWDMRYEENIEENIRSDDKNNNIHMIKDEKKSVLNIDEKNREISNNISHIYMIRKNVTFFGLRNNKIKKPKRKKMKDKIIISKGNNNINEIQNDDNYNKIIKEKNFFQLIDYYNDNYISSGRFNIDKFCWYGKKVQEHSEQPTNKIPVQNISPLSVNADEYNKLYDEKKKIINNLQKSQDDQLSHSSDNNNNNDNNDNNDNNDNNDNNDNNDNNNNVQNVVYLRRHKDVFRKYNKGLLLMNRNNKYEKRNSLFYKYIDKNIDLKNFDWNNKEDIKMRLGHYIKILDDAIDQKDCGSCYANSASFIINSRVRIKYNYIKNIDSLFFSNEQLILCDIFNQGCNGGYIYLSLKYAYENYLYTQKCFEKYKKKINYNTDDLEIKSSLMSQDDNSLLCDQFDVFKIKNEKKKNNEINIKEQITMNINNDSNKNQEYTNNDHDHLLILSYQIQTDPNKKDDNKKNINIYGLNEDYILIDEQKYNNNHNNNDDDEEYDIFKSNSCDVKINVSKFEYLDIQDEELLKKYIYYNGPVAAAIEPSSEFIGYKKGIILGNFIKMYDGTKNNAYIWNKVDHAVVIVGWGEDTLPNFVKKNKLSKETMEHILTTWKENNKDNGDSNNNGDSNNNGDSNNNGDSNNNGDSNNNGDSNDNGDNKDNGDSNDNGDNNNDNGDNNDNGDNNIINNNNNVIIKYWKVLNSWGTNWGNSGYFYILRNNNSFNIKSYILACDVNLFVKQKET

T2 sequence (Q3ZCJ8 25-134): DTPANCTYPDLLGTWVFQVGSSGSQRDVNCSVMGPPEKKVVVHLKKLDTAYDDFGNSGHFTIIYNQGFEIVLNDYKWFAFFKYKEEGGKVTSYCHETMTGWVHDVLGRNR
T2 sequence (Q3ZCJ8 231-394): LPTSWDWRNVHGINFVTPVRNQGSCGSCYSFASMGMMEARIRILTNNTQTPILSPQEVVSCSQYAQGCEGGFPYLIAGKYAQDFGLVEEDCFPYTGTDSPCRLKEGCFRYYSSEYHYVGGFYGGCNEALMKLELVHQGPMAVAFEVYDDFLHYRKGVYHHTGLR
T2 sequence (Q3ZCJ8 395-463): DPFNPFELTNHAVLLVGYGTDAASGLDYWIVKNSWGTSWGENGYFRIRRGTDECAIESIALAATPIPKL
T4 sequence (P25805 whole entry): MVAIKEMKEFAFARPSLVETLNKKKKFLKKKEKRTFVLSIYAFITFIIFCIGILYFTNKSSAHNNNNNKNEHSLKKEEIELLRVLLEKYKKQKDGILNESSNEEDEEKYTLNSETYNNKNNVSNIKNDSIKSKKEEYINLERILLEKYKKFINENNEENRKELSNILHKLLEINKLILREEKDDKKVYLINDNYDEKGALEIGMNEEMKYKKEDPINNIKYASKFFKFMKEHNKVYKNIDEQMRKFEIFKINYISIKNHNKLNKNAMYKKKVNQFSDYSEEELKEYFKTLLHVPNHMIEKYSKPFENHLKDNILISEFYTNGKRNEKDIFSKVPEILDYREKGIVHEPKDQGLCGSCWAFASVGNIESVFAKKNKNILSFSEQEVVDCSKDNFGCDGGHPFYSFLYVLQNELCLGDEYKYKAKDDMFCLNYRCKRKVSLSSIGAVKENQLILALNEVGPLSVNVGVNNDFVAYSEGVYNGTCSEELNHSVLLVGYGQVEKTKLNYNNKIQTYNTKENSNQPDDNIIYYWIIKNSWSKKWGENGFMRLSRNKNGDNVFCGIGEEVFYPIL

As for `O=C(N[C@H](/C=C/S(=O)(=O)c1ccccc1)CCc1ccccc1)[C@@H]1CCCCN1` [hPro‐hPhe‐VS], the figures for the kinact on DPAP1 [1] (read-out: DPAP1 / k inact ·10^3), on CatC (bovine) (read-out: CatC / k inact ·10^3) and on DPAP3 [4] (read-out: DPAP3 / k inact ·10^3) were 0.0048 ± 0.0006 s⁻¹, 0.00167 ± 8e-05 s⁻¹ and 0.0021 ± 0.0001 s⁻¹, respectively. In addition, the kinact/KI turned out to be 1.23e+06 ± 400000 M⁻¹ s⁻¹ at DPAP1 [1] (read-out: DPAP1 / k inact/K i ·10^−3 (M ^−1·s^−1)), 76000 ± 800 M⁻¹ s⁻¹ on CatC (bovine) (read-out: CatC / k inact/K i ·10^−3 (M ^−1·s^−1)) and 69000 ± 13000 M⁻¹ s⁻¹ at DPAP3 [4] (read-out: DPAP3 / k inact/K i ·10^−3 (M ^−1·s^−1)). The IC50 worked out at 80 ± 7 nM at DPAP1 [2], 350 ± 80 nM on FP1 and 160 ± 50 nM at DPAP3 [3].
